# Literature values as cited in patent US20060198830A1, “Ubiquinone composition and a container for its convenient transport and storage” (priority 2005, published 2006).
# Conditions: administration of 300-1200 mg/day of CoQ10
compound,measurement,value
"COC1=C(OC)C(=O)C(C/C=C(\C)CC/C=C(\C)CC/C=C(\C)CC/C=C(\C)CC/C=C(\C)CC/C=C(\C)CC/C=C(\C)CC/C=C(\C)CC/C=C(\C)CCC=C(C)C)=C(C)C1=O [CoQ10, Ubiquinone]",plasma CoQ10 concentrations,3 to 4 µg/mL
